Test in all cases: biochemical
What all share (design): KINOMEscan scanMAX active site-directed competition binding assay, percent of control, 468 kinases
Conditions in all cases: competition binding, percent of control

The target in test [1] is CSF1R-autoinhibited (Homo sapiens, UniProt P07333). An outline of the steps:
(§1)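 KINOMEscan active site-directed competition binding assay against 468 human kinases with 100 μM S-carvone. Binding expressed as % of control, with 35% of control as the inhibition threshold.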

Test [2] addresses CSF1R (Homo sapiens, UniProt P07333). An outline of the steps: as §1
For test [3], the target named is CHEK1 (Homo sapiens, UniProt O14757). The method in brief:
as §1

In test [4] the target is T1, RPS6KA5(Kin.Dom.2-C-terminal) (Homo sapiens, UniProt O75582).
T1 construct: Kin.Dom.2-C-terminal
An outline of the steps: as §1

The target of test [5] is LCK (Homo sapiens, UniProt P06239). The method in brief: as §1
Test [6] has as its target T2, MEK5 (Homo sapiens, UniProt Q13163).
T2 construct: gene MAP2K5
The method in brief: as §1

The target in test [7] is EPHA6 (Homo sapiens, UniProt Q9UF33). The method in brief: as §1
In test [8] the target is T3, MLK1 (Homo sapiens, UniProt P80192).
T3 construct: gene MAP3K9
The method in brief: as §1

For test [9], the target named is ROS1 (Homo sapiens, UniProt P08922). An outline of the steps:
as §1

The target of test [10] is CLK4 (Homo sapiens, UniProt Q9HAZ1). An outline of the steps:
as §1

The target in test [11] is MARK2 (Homo sapiens, UniProt Q7KZI7). The method in brief: as §1
The target in test [12] is PAK3 (Homo sapiens, UniProt O75914). An outline of the steps:
as §1

Test [13] concerns the target ALK(C1156Y) (Homo sapiens, UniProt Q9UM73, C1156Y). An outline of the steps:
as §1

Test [14] deals with FLT3(N841I) (Homo sapiens, UniProt P36888, N841I). The method in brief:
as §1

Test [15] concerns the target T4, PRKR (Homo sapiens, UniProt P19525).
T4 construct: gene EIF2AK2
An outline of the steps: as §1

For test [16], the target named is EPHA5 (Homo sapiens, UniProt P54756). The method in brief:
as §1

The target of test [17] is T5, SIK (Homo sapiens, UniProt P57059).
T5 construct: gene SIK1
An outline of the steps:
as §1

In test [18] the target is BRSK2 (Homo sapiens, UniProt Q8IWQ3). An outline of the steps: as §1
Test [19] addresses DYRK1A (Homo sapiens, UniProt Q13627). The method in brief:
as §1

Test [20] concerns the target GAK (Homo sapiens, UniProt O14976). The method in brief:
as §1

The target of test [21] is WEE2 (Homo sapiens, UniProt P0C1S8). The method in brief: as §1
In test [22] the target is T6, QSK (Homo sapiens, UniProt Q9Y2K2).
T6 construct: gene SIK3
The method in brief: as §1

Experimental findings from publication PMC10174618, “Monoterpenoid aryl hydrocarbon receptor allosteric antagonists protect against ultraviolet skin damage in female mice” (Nature Communications, 2023) are described below.

CSF1R-autoinhibited, sequence (P07333 whole entry): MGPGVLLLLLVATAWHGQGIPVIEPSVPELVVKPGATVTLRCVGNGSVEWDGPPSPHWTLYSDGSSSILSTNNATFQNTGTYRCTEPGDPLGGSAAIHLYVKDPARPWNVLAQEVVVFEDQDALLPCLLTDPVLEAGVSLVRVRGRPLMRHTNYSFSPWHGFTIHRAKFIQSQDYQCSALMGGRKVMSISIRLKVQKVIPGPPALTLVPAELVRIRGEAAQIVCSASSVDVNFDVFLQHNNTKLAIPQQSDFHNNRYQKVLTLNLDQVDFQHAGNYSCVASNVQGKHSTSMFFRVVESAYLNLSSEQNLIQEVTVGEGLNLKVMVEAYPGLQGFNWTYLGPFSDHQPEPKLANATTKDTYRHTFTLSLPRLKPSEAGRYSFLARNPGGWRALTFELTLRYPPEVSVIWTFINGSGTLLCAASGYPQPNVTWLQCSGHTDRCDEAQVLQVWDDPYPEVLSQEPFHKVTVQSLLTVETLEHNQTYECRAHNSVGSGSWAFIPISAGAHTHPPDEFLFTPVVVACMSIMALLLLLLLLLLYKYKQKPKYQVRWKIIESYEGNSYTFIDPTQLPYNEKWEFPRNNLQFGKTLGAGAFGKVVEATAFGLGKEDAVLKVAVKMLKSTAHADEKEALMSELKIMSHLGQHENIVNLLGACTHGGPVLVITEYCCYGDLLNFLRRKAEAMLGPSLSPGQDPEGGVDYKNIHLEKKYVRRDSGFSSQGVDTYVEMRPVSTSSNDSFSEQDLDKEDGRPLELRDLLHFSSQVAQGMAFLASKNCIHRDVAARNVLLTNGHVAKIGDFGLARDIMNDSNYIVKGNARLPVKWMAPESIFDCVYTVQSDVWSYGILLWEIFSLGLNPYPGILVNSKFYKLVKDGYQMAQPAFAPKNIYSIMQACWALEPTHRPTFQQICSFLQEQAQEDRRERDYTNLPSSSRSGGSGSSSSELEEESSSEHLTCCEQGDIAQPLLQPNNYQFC
CSF1R, sequence (P07333 whole entry): as above
GAK, sequence (O14976 whole entry): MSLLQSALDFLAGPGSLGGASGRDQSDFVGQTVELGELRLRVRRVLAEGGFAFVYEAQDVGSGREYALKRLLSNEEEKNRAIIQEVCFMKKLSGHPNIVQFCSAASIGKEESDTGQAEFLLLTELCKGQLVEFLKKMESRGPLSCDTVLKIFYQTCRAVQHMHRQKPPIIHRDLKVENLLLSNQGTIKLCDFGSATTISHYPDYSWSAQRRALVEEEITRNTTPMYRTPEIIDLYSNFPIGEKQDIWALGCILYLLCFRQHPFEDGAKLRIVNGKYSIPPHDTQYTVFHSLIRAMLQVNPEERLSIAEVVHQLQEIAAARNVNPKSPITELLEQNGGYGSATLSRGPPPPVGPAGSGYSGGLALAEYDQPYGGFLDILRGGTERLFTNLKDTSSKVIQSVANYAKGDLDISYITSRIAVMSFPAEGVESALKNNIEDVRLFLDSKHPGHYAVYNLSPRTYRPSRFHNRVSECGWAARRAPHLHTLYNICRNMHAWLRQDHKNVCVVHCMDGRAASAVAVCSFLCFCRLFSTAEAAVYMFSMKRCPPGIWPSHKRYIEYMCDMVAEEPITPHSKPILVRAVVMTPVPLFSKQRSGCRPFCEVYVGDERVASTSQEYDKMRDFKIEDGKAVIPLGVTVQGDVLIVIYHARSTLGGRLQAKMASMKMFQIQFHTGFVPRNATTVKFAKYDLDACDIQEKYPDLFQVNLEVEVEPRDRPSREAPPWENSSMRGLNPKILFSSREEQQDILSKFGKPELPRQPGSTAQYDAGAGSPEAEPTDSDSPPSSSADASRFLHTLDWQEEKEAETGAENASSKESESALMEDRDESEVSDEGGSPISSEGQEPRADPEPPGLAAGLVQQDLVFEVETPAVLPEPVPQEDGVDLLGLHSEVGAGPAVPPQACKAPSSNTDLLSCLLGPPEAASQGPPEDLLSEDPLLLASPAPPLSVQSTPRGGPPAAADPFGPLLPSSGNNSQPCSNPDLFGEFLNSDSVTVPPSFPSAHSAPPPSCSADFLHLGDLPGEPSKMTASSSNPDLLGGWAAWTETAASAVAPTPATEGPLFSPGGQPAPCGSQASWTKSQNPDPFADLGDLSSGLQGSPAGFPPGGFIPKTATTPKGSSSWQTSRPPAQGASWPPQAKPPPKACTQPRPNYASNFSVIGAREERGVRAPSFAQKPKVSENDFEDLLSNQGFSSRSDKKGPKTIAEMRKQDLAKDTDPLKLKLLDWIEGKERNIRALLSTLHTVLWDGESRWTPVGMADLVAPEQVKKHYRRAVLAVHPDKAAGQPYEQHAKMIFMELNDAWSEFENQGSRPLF
LCK, sequence (P06239 whole entry): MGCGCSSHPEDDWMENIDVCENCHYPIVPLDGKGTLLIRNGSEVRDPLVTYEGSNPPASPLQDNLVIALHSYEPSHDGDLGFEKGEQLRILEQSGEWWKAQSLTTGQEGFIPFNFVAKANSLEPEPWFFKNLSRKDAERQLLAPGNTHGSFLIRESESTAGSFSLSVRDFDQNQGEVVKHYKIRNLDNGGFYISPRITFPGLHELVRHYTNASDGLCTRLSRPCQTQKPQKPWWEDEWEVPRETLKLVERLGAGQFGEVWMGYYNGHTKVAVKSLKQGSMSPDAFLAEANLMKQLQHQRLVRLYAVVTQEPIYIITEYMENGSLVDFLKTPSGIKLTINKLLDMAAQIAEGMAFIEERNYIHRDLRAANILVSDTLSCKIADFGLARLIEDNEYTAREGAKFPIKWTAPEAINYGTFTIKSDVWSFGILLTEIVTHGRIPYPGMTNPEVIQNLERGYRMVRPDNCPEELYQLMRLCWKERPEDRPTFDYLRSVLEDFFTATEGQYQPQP
EPHA5, sequence (P54756 whole entry): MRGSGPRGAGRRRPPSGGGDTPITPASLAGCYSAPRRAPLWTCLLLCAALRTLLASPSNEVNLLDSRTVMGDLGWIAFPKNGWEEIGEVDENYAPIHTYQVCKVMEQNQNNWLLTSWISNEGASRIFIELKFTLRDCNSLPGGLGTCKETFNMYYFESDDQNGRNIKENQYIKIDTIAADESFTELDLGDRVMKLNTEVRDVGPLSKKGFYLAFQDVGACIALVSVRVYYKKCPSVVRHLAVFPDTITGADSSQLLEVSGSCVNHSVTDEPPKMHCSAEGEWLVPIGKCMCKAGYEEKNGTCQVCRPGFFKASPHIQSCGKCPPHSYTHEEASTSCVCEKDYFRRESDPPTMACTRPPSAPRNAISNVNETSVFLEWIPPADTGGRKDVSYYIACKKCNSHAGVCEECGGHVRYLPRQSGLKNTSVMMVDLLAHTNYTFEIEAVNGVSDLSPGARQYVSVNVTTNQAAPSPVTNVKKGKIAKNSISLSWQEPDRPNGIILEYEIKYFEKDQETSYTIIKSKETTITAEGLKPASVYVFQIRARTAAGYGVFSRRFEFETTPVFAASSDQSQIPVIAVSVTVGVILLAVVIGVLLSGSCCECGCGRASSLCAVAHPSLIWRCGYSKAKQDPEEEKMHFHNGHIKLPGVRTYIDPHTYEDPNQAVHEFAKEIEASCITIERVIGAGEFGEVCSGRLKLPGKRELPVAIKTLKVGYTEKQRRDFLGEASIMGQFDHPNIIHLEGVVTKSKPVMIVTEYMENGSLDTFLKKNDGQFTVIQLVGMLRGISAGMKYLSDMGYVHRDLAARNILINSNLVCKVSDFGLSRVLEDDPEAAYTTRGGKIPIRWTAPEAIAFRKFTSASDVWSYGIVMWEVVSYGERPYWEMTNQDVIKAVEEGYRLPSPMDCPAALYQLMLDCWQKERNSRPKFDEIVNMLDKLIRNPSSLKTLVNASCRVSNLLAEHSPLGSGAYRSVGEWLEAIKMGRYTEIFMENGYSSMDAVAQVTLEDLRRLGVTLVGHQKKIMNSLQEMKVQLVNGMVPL
T5 sequence (P57059 whole entry): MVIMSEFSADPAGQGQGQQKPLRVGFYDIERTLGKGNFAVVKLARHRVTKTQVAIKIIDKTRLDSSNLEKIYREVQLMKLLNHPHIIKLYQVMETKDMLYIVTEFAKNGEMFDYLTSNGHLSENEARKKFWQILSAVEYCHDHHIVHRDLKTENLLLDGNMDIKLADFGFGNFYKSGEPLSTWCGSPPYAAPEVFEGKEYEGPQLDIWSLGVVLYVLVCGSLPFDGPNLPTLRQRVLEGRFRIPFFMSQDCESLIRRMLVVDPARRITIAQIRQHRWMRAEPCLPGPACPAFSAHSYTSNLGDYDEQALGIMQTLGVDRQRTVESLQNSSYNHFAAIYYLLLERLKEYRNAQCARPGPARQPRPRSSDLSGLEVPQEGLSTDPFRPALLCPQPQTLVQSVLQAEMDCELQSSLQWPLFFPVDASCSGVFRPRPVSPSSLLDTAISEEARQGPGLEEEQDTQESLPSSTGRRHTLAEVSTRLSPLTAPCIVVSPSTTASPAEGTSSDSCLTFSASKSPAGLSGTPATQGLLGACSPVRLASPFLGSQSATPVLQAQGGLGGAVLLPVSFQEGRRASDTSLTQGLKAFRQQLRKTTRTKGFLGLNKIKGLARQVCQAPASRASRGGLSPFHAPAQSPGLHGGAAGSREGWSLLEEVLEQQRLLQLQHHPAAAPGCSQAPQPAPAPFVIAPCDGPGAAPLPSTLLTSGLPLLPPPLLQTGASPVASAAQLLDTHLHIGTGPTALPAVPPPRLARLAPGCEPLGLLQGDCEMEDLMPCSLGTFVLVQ

Consider `C=C(C)[C@H]1CC=C(C)C(=O)C1` [S-carvone], for which the remaining binding at 100 µM in test [1] was 73%; in test [2] it was 86%; in test [3] it was 91%; in [4] it was 85%; in test [5], 71%; in test [6], 74%. Besides, the remaining binding at 100 µM in test [7] was 64%; in test [8] it was 92%; in [9] it was 83%; in test [10], 91%; in test [11] it was 100%; in [12], 78%. For the same compound, the remaining binding at 100 µM was determined as 70% in test [13]; 63% in test [14]; 74% in [15]; 61% in [16]; 67% in [17]; 79% in test [18]. In addition, the remaining binding at 100 µM in [19] was found to be 91%; in test [20], 83%; in test [21] it was 88%; in test [22] it was 89%.
